The record followed here is publication PMC6733504, “Effects of flavoring compounds used in electronic cigarette refill liquids on endothelial and vascular function” (PLoS ONE, 2019).

Molecules are shown by their SMILES.

In experiment [1] the test system is endothelium-denuded rat aortic rings. Description: cAMP and cGMP levels in endothelium-denuded aortic rings. The source says: 1 S4 Table. […]
2 endothelium-denuded rat aortic rings.
Flavoring (fmol x mg-1) (fmol x mg-1)
4 En d o th e liu m-denuded rings, treated with test compounds as described in the
5 Materials and methods section of the main text, were freeze-clamped when maximal
6 relaxation had been reached. Rings were homogenized in 5% trichloroacetic acid
7 and analyzed for cAMP and cGMP by radioimmunoassay. Forskolin and DEA/NO
8 were used to induce maximal accumulation of cAMP and cGMP, respectively. Data
9 shown are mean values±SEM of 3 (forskolin and DEA/NO) or 6 (basal,
10 cinnamaldehyde and eugenol) rings; n.d., not determined, *p<0.05 vs. basal (ANOVA
11 and Dunnett's post hoc test).

Experiment [2] concerns the target T1, soluble guanylate cyclase (sGC) (Bos taurus, UniProt P16068+P19687).
T1 construct: The activity of sGC purified from bovine lung; from tissue; host or cells: bovine lung
T1 sequence (P19687 1-691): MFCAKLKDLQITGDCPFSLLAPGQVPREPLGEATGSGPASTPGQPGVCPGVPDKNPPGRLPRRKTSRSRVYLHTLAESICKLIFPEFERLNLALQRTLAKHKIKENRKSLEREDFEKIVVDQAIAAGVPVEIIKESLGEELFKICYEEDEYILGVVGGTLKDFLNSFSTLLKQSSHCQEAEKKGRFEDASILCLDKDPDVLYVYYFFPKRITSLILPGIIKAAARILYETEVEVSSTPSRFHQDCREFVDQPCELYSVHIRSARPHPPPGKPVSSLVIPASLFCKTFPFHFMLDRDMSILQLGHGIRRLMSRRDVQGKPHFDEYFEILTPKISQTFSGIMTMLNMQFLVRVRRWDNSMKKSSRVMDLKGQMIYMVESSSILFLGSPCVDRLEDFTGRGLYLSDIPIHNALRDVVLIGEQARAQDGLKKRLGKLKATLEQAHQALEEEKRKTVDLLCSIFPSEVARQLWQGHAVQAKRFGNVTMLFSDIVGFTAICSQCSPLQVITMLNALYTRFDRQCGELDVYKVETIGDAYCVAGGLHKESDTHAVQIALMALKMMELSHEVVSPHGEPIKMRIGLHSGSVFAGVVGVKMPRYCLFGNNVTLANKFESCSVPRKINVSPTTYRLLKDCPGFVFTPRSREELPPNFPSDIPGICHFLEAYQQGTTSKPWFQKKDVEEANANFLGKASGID
T1 sequence (P16068 1-619): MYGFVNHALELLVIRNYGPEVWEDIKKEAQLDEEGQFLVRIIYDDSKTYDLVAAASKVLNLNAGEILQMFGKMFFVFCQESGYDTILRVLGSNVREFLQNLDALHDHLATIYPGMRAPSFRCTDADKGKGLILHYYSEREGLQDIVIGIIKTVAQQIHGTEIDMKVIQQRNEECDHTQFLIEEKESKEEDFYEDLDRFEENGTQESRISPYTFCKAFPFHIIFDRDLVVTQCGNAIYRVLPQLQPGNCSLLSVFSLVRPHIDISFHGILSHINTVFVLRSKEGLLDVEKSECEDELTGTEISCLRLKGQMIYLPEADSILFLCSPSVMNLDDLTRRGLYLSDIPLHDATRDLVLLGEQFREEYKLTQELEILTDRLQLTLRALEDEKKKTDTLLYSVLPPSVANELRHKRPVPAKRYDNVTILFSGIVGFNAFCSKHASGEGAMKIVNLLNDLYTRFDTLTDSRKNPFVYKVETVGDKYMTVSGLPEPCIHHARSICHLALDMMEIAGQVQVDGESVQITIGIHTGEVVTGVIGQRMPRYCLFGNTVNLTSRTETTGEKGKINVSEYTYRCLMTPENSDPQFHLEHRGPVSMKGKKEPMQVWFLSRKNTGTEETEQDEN
Briefly: Activity of purified sGC stimulated with DEA/NO. It is filed as biochemical, bovine. The note with it: for Emax of DEA/NO-stimulated sGC activity in presence of flavoring: flavoring 1 mM, DEA/NO 0.01–10 μM. Here is the method:
The activity of sGC purified from bovine lung was determined as formation of [^32P]cGMP from [α-^32P]GTP. The purified enzyme (50 ng) was incubated at 37°C for 10 min in a final volume of 0.1 ml in the absence or presence of flavorings with the NO donor DEA/NO at concentrations indicated in the figure legends, followed by isolation of [^32P]cGMP and quantification of radioactivity (Cerenkov radiation) in a β counter.
To test for reversibility of inhibition, sGC (50 ng) was preincubated in the absence or presence of the respective compounds for 5 minutes at 37°C, followed by 50-fold dilution in the assay mixtures and incubation with DEA/NO at 37°C for 10 minutes.

In experiment [1] (1 mM), `O=C/C=C/c1ccccc1` [Cinnamaldehyde, (2E)-3-Phenylprop-2-enal] registered a cAMP of 200±36 fmol x mg-1 and a cGMP of 127±10 fmol x mg-1. Further, in experiment [1] (10 mM), the cAMP is listed as 161±7 fmol x mg-1 and the cGMP is reported as 86±7 fmol x mg-1. Moreover, half-maximal inhibition in experiment [2] (DEA/NO 0.05 μM, 95% CI) (IC50) required 560 µM. The “Reversal of sGC inhibition by 50-fold dilution” value in experiment [2] (enzyme pre-incubated 5 minutes with 1 mM) is recorded as “largely”. In experiment [2], the “Emax of DEA/NO-stimulated sGC activity in presence of flavoring” value is recorded as 24±0.8 µmol cGMP x min-1 x mg-1.
With `C=CCc1ccc(O)c(OC)c1` [Eugenol, 2-Methoxy-4-(prop-2-en-1-yl)phenol], in experiment [1] (1 mM), the cAMP is 162±9 fmol x mg-1 and the cGMP stood at 81±4 fmol x mg-1. In experiment [1] (10 mM), the cAMP is listed as 171±24 fmol x mg-1 and the cGMP was determined as 71±18 fmol x mg-1. The “Emax of DEA/NO-stimulated sGC activity in presence of flavoring” value in experiment [2] turned out to be 28±1.1 µmol cGMP x min-1 x mg-1.
